From ChEMBL document CHEMBL3085706, “Scorpiand-like azamacrocycles prevent the chronic establishment of Trypanosoma cruzi in a murine model” (Eur J Med Chem, 2013)
Activity calls are given as the source filed them. The rule behind the calls is not given here.

What was measured:
[1] = tested on: Trypanosoma cruzi; assay: Trypanocidal activity against extracellular trypomastigote form of Trypanosoma cruzi IRHOD/CO/2008/SN3 after 24 hrs by Neubauer hemocytometric analysis; assay type: functional, organism-based; settings: IRHOD/CO/2008/SN3, 24 h
[2] = tested on: Trypanosoma cruzi; assay: Trypanocidal activity against intracellular amastigote form of Trypanosoma cruzi IRHOD/CO/2008/SN3 infected in African green monkey Vero cells after 72 hrs by Giemsa staining assay; assay type: functional, organism-based; settings: IRHOD/CO/2008/SN3, Vero
[3] = tested on: Trypanosoma cruzi; assay: Trypanocidal activity against extracellular epimastigote form of Trypanosoma cruzi IRHOD/CO/2008/SN3 after 72 hrs by Neubauer hemocytometric analysis; assay type: functional, organism-based; settings: IRHOD/CO/2008/SN3, 72 h
[4] = tested on: Trypanosoma cruzi; assay: Trypanocidal activity against epimastigote form of Trypanosoma cruzi IRHOD/CO/2008/SN3 assessed as induction of ethanol production at IC25 after 96 hrs by NMR spectra analysis; assay type: functional, organism-based
[5] = tested on: Trypanosoma cruzi; assay: Trypanocidal activity against epimastigote form of Trypanosoma cruzi IRHOD/CO/2008/SN3 assessed as inhibition of acetate excretion at IC25 after 96 hrs by NMR spectra analysis; assay type: functional, organism-based
[6] = Inhibition of Escherichia coli Mn-SOD assessed as reduction of nitrobluetetrazolium measured for 10 mins by spectrophotometric analysis
[7] = Inhibition of Fe-SOD in Trypanosoma cruzi IRHOD/CO/2008/SN3 epimastigotes assessed as reduction of nitrobluetetrazolium measured for 10 mins by spectrophotometric analysis
[8] = tested on: Trypanosoma cruzi; assay: Inhibition of Fe-SOD in Trypanosoma cruzi IRHOD/CO/2008/SN3 epimastigotes assessed as reduction of nitrobluetetrazolium at 12.5 to 25 uM measured for 10 mins by spectrophotometric analysis relative to control
[9] = tested on: Trypanosoma cruzi; assay: Trypanocidal activity against epimastigote form of Trypanosoma cruzi IRHOD/CO/2008/SN3 assessed as dispersed cytoplasm at IC25 after 96 hrs by transmission electron microscopic analysis; assay type: functional, organism-based
[10] = tested on: Trypanosoma cruzi; assay: Trypanocidal activity against epimastigote form of Trypanosoma cruzi IRHOD/CO/2008/SN3 assessed as empty mitochondria at IC25 after 96 hrs by transmission electron microscopic analysis; assay type: functional, organism-based
[11] = tested on: Trypanosoma cruzi; assay: Trypanocidal activity against epimastigote form of Trypanosoma cruzi IRHOD/CO/2008/SN3 assessed as abundant larger acidocalcisomes at IC25 after 96 hrs by transmission electron microscopic analysis; assay type: functional, organism-based
[12] = tested on: Trypanosoma cruzi; assay: Trypanocidal activity against epimastigote form of Trypanosoma cruzi IRHOD/CO/2008/SN3 assessed as appearance of strongly electrondensed glycosomes at IC25 after 96 hrs by transmission electron microscopic analysis; assay type: functional, organism-based
[13] = tested on: Trypanosoma cruzi; assay: Trypanocidal activity against epimastigote form of Trypanosoma cruzi IRHOD/CO/2008/SN3 assessed as appearance of large vacuoles at IC25 after 96 hrs by transmission electron microscopic analysis; assay type: functional, organism-based
[14] = tested on: Mus musculus; assay: Hepatotoxicity in BALB/c mouse infected with bloodstream trypomastigote form of Trypanosoma cruzi IRHOD/CO/2008/SN3 assessed as presence of necrotic cells in portal space at 5 mg/kg/day, ip administered for 5 days measured 150 days post-infection by light microscopic analysis; assay type: toxicity, organism-based; parameters: route intraperitoneal; settings: in vivo, 3600 h
[15] = tested on: Mus musculus; assay: Hepatotoxicity in BALB/c mouse infected with bloodstream trypomastigote form of Trypanosoma cruzi IRHOD/CO/2008/SN3 assessed as hepatic destruction in portal space at 5 mg/kg/day, ip administered for 5 days measured 150 days post-infection by light microscopic analysis; assay type: toxicity, organism-based; parameters: route intraperitoneal; settings: in vivo, 3600 h
[16] = tested on: Mus musculus; assay: Hepatotoxicity in BALB/c mouse infected with bloodstream trypomastigote form of Trypanosoma cruzi IRHOD/CO/2008/SN3 assessed as centrilobular destruction of hepatic vein at 5 mg/kg/day, ip administered for 5 days measured 150 days post-infection by light microscopic analysis; assay type: toxicity, organism-based; parameters: route intraperitoneal; settings: in vivo, 3600 h
[17] = tested on: Mus musculus; assay: Hepatotoxicity in BALB/c mouse infected with bloodstream trypomastigote form of Trypanosoma cruzi IRHOD/CO/2008/SN3 assessed as lymphocytic infiltration in portal tracts at 5 mg/kg/day, ip administered for 5 days measured 150 days post-infection by light microscopic analysis; assay type: toxicity, organism-based; parameters: route intraperitoneal; settings: in vivo, 3600 h
[18] = tested on: Mus musculus; assay: Hepatotoxicity in BALB/c mouse infected with bloodstream trypomastigote form of Trypanosoma cruzi IRHOD/CO/2008/SN3 assessed as vessels with thickened walls at 5 mg/kg/day, ip administered for 5 days measured 150 days post-infection by light microscopic analysis; assay type: toxicity, organism-based; parameters: route intraperitoneal; settings: in vivo
[19] = tested on: Mus musculus; assay: Hepatotoxicity in BALB/c mouse infected with bloodstream trypomastigote form of Trypanosoma cruzi IRHOD/CO/2008/SN3 assessed as delocalized hepatic destruction at 5 mg/kg/day, ip administered for 5 days measured 150 days post-infection by light microscopic analysis; assay type: toxicity, organism-based; parameters: route intraperitoneal; settings: in vivo, 3600 h
[20] = tested on: Mus musculus; assay: Hepatotoxicity in BALB/c mouse infected with bloodstream trypomastigote form of Trypanosoma cruzi IRHOD/CO/2008/SN3 assessed as granuloma with lymphocytic infiltrate at 5 mg/kg/day, ip administered for 5 days measured 150 days post-infection by light microscopic analysis; assay type: toxicity, organism-based; parameters: route intraperitoneal; settings: in vivo, 3600 h
[21] = tested on: Trypanosoma cruzi; assay: Trypanocidal activity against bloodstream trypomastigote form of Trypanosoma cruzi IRHOD/CO/2008/SN3 infected in BALB/c mouse assessed as reduction of parasite load in liver at 5 mg/kg/day, ip administered for 5 days measured 150 days post-infection by PCR analysis; assay type: functional, organism-based
[22] = tested on: Trypanosoma cruzi; assay: (§1) Trypanocidal activity against bloodstream trypomastigote form of Trypanosoma cruzi IRHOD/CO/2008/SN3 infected in cyclophosphamide monohydrate-treated BALB/c immunosuppression mouse model assessed as reduction of parasite load in liver at 5 mg/kg/day, ip administered for 5 days measured 150 days post-infection by PCR analysis; assay type: functional, organism-based
[23] = tested on: Trypanosoma cruzi; assay: as §1, with “heart” for “liver”; assay type: functional, organism-based
[24] = tested on: Trypanosoma cruzi; assay: Trypanocidal activity against bloodstream trypomastigote form of Trypanosoma cruzi IRHOD/CO/2008/SN3 infected in BALB/c mouse assessed as reduction of parasite load in heart at 5 mg/kg/day, ip administered for 5 days measured 150 days post-infection by PCR analysis; assay type: functional, organism-based
[25] = tested on: Trypanosoma cruzi; assay: as §1, with “reactivation” for “reduction”, “parasitemia level” for “parasite load in liver”, “(reference value: 91.7 %)” for “by PCR analysis”; assay type: functional; settings: route intraperitoneal
[26] = tested on: Trypanosoma cruzi; assay: Trypanocidal activity against bloodstream trypomastigote form of Trypanosoma cruzi IRHOD/CO/2008/SN3 infected in BALB/c mouse assessed as reduction of anti-parasitic Ig-G level in serum at 5 mg/kg/day, ip administered for 5 days measured over 40 to 120 days post-infection by ELISA; assay type: functional, organism-based
[27] = tested on: Trypanosoma cruzi; assay: Trypanocidal activity against bloodstream trypomastigote form of Trypanosoma cruzi IRHOD/CO/2008/SN3 infected in BALB/c mouse assessed as reduction of circulating parasite burden at 5 mg/kg, ip administered for 5 to 10 days measured 22 to 60 days post-infection by Neubauer hemocytometric analysis; assay type: functional, organism-based; parameters: dose 5 mg/kg
[28] = tested on: Trypanosoma cruzi; assay: Trypanocidal activity against trypomastigote form of Trypanosoma cruzi IRHOD/CO/2008/SN3 infected in African green monkey Vero cells assessed as inhibition of trypomastigotes released in culture medium at IC25 relative to control; assay type: functional
[29] = tested on: Trypanosoma cruzi; assay: (§2) Trypanocidal activity against amastigote form of Trypanosoma cruzi IRHOD/CO/2008/SN3 infected in African green monkey Vero cells assessed as inhibition of amastigotes load per cell at IC25 preincubated for 12 hrs followed by compound washout measured after 10 days by Giemsa staining-based microscopic analysis relative to control; assay type: functional
[30] = tested on: Trypanosoma cruzi; assay: as §2, with “parasite infection rate” for “amastigotes load per cell”; assay type: functional
[31] = Selectivity index, ratio of IC50 for African green monkey Vero cells to IC50 for extracellular trypomastigote form of Trypanosoma cruzi IRHOD/CO/2008/SN3; assay type: toxicity, cell-based; settings: read-out: Ratio IC50
[32] = Selectivity index, ratio of IC50 for African green monkey Vero cells to IC50 for intracellular amastigote form of Trypanosoma cruzi IRHOD/CO/2008/SN3; assay type: toxicity, cell-based; settings: read-out: Ratio IC50
[33] = Selectivity index, ratio of IC50 for African green monkey Vero cells to IC50 for extracellular epimastigote form of Trypanosoma cruzi IRHOD/CO/2008/SN3; assay type: toxicity, cell-based; settings: read-out: Ratio IC50
[34] = tested on: Vero; assay: Cytotoxicity against African green monkey Vero cells after 72 hrs by flow cytometric analysis; assay type: cell-based; settings: Chlorocebus sabaeus
[35] = tested on: Trypanosoma cruzi; assay: Trypanocidal activity against bloodstream trypomastigote form of Trypanosoma cruzi IRHOD/CO/2008/SN3 infected in cyclophosphamide monohydrate-treated BALB/c immunosuppression mouse model assessed as reduction of total anti-parasitic Ig-G level in serum at 5 mg/kg/day, ip administered for 5 days measured 150 days post-infection by ELISA; assay type: functional, organism-based
[36] = tested on: Mus musculus; assay: Hepatotoxicity in BALB/c mouse infected with bloodstream trypomastigote form of Trypanosoma cruzi IRHOD/CO/2008/SN3 assessed as interstitial hemorrhage at 5 mg/kg/day, ip administered for 5 days measured 150 days post-infection by light microscopic analysis; assay type: toxicity, organism-based; parameters: route intraperitoneal; settings: in vivo, 3600 h
[37] = tested on: Trypanosoma cruzi; assay: Trypanocidal activity against epimastigote form of Trypanosoma cruzi IRHOD/CO/2008/SN3 assessed as inhibition of lactate excretion at IC25 after 96 hrs by NMR spectra analysis; assay type: functional, organism-based
[38] = tested on: Trypanosoma cruzi; assay: Trypanocidal activity against epimastigote form of Trypanosoma cruzi IRHOD/CO/2008/SN3 assessed as inhibition of alanine excretion at IC25 after 96 hrs by NMR spectra analysis; assay type: functional, organism-based
[39] = tested on: Trypanosoma cruzi; assay: Trypanocidal activity against epimastigote form of Trypanosoma cruzi IRHOD/CO/2008/SN3 assessed as effect on succinate production at IC25 after 96 hrs by NMR spectra analysis; assay type: functional, organism-based
[40] = tested on: Trypanosoma cruzi; assay: Trypanocidal activity against epimastigote form of Trypanosoma cruzi IRHOD/CO/2008/SN3 assessed as inhibition of succinate excretion at IC25 after 96 hrs by NMR spectra analysis; assay type: functional, organism-based
[41] = tested on: Trypanosoma cruzi; assay: Trypanocidal activity against epimastigote form of Trypanosoma cruzi IRHOD/CO/2008/SN3 assessed as loss of plasma membrane integrity at IC25 after 96 hrs by transmission electron microscopic analysis; assay type: functional, organism-based
[42] = tested on: Trypanosoma cruzi; assay: Trypanocidal activity against epimastigote form of Trypanosoma cruzi IRHOD/CO/2008/SN3 assessed as excessive dilation of kinetoplast at IC25 after 96 hrs by transmission electron microscopic analysis; assay type: functional, organism-based
[43] = tested on: Trypanosoma cruzi; assay: Trypanocidal activity against epimastigote form of Trypanosoma cruzi IRHOD/CO/2008/SN3 assessed as cytoplasmic vacuolization and disintegration at IC25 after 96 hrs by transmission electron microscopic analysis; assay type: functional, organism-based
[44] = tested on: Trypanosoma cruzi; assay: Trypanocidal activity against epimastigote form of Trypanosoma cruzi IRHOD/CO/2008/SN3 assessed as lysis of epimastigotes at IC25 after 96 hrs by transmission electron microscopic analysis; assay type: functional, organism-based

Compound | IC50 [1] | IC50 [2] | IC50 [3] | Activity [4] | inhibition [5] | IC50 [6] | IC50 [7] | inhibition [8] | Activity [14] | Activity [15] | Activity [16] | Activity [17] | Activity [18] | Activity [19] | Activity [20] | Activity [26] | Activity [27] | inhibition (INH) [28] | inhibition (INH) [29] | inhibition (INH) [30] | also measured
Cl.c1cncc(CNCCN2CCNCc3cccc(n3)CNCC2)c1 | 19.7 µM | 9.5 µM | 8 µM | Active | Active | 63.6 µM | 10.8 µM | 100% | Non-toxic | Non-toxic | Non-toxic | Toxic | Toxic | Toxic | Toxic | Active | Active | 89% | 69% | 86% | Activity [9]: Active; Activity [10]: Active; Activity [11]: Active; Activity [12]: Active; Activity [13]: Active; Activity [21]: Active; Activity [22]: Active; Activity [23]: Active; Activity [24]: Active; Activity [25]: 5.6%; selectivity ratio [31]: 21.6; selectivity ratio [32]: 44.8; selectivity ratio [33]: 52.7; IC50 [34]: 425 µM; Activity [35]: Active; Activity [36]: Non-toxic; inhibition [37]: Active; inhibition [38]: Active; Activity [39]: inactive
O=C(Cn1ccnc1[N+](=O)[O-])NCc1ccccc1 [BENZNIDAZOLE] | 22.6 µM | 23 µM |  |  |  |  |  |  | Toxic | Toxic | Non-toxic | Non-toxic | Non-toxic | Toxic | Toxic | Active | Active | 27% | 12% | 39% | Activity [36]: Non-toxic
Br.NCCN1CCNCc2cccc(n2)CNCC1 | 16.3 µM | 7.8 µM | 6.5 µM | Active | Active | 111 µM | 12.5 µM | 100% |  |  |  |  |  |  |  | Active | Active | 58% | 46% | 73% | inhibition [40]: Active; Activity [41]: Active; Activity [42]: Active; Activity [43]: Active; Activity [44]: Active; selectivity ratio [31]: 16.5; selectivity ratio [32]: 34.5; selectivity ratio [33]: 41.4; IC50 [34]: 270 µM; inhibition [37]: Active; inhibition [38]: Active
